Read-outs that look alike come from different tables or passages of the source.
How the values were obtained:
Assay in all cases: biochemical
Assay type in all cases: biochemical
panel of 391 kinases [1] = molecular target: panel of 391 kinases (Homo sapiens, UniProt O75716); settings: STK16, MK-28 1 µM, ATP 1 µM
panel of 391 kinases [2] = molecular target: panel of 391 kinases (Homo sapiens, UniProt O95382); settings: MEKK6, MK-28 1 µM, ATP 1 µM
panel of 391 kinases [3] = molecular target: panel of 391 kinases (Homo sapiens, UniProt P07333); settings: FMS, MK-28 1 µM, ATP 1 µM
panel of 391 kinases [4] = molecular target: panel of 391 kinases (Homo sapiens, UniProt P21709); settings: EPHA1, MK-28 1 µM, ATP 1 µM
panel of 391 kinases [5] = molecular target: panel of 391 kinases (Homo sapiens, UniProt P22694); settings: PKAcb, MK-28 1 µM, ATP 1 µM
panel of 391 kinases [6] = molecular target: panel of 391 kinases (Homo sapiens, UniProt P24941); settings: MK-28 1 µM, ATP 1 µM; for remaining activity at 1 µM: read-out: % Enzyme Activity (relative to DMSO controls)
panel of 391 kinases [7] = molecular target: panel of 391 kinases (Homo sapiens, UniProt P29323); settings: EPHB2, MK-28 1 µM, ATP 1 µM
panel of 391 kinases [8] = molecular target: panel of 391 kinases (Homo sapiens, UniProt P49759); settings: CLK1, MK-28 1 µM, ATP 1 µM
panel of 391 kinases [9] = molecular target: panel of 391 kinases (Homo sapiens, UniProt P49761); settings: CLK3, MK-28 1 µM, ATP 1 µM
panel of 391 kinases [10] = molecular target: panel of 391 kinases (Homo sapiens, UniProt P49841); settings: GSK3b, MK-28 1 µM, ATP 1 µM
panel of 391 kinases [11] = molecular target: panel of 391 kinases (Homo sapiens, UniProt P51451); settings: BLK, MK-28 1 µM, ATP 1 µM
panel of 391 kinases [12] = molecular target: panel of 391 kinases (Homo sapiens, UniProt P57078); settings: RIPK4, MK-28 1 µM, ATP 1 µM
panel of 391 kinases [13] = molecular target: panel of 391 kinases (Homo sapiens, UniProt Q00537); settings: CDK17/cyclin Y (PCTK2), MK-28 1 µM, ATP 1 µM
panel of 391 kinases [14] = molecular target: panel of 391 kinases (Homo sapiens, UniProt Q13873); settings: BMPR2, MK-28 1 µM, ATP 1 µM
panel of 391 kinases [15] = molecular target: panel of 391 kinases (Homo sapiens, UniProt Q13882); settings: BRK, MK-28 1 µM, ATP 1 µM
panel of 391 kinases [16] = molecular target: panel of 391 kinases (Homo sapiens, UniProt Q15118); settings: kinase PDK1/PDHK1, compound at 1 µM, single dose in duplicates, 1 µM ATP
panel of 391 kinases [17] = molecular target: panel of 391 kinases (Homo sapiens, UniProt Q15349); settings: RSK3, MK-28 1 µM, ATP 1 µM
panel of 391 kinases [18] = molecular target: panel of 391 kinases (Homo sapiens, UniProt Q86UE8); settings: TLK2, MK-28 1 µM, ATP 1 µM
panel of 391 kinases [19] = molecular target: panel of 391 kinases (Homo sapiens, UniProt Q86Z02); settings: HIPK1, MK-28 1 µM, ATP 1 µM
panel of 391 kinases [20] = molecular target: panel of 391 kinases (Homo sapiens, UniProt Q96BR1); settings: SGK3/SGKL, MK-28 1 µM, ATP 1 µM
panel of 391 kinases [21] = molecular target: panel of 391 kinases (Homo sapiens, UniProt Q9BXA7); settings: STK22D/TSSK1, MK-28 1 µM, ATP 1 µM
panel of 391 kinases [22] = molecular target: panel of 391 kinases (Homo sapiens, UniProt Q9H3Y6); settings: SRMS, MK-28 1 µM, ATP 1 µM
panel of 391 kinases [23] = molecular target: panel of 391 kinases (Homo sapiens, UniProt Q9HCP0); settings: CK1g1, MK-28 1 µM, ATP 1 µM
panel of 391 kinases [24] = molecular target: panel of 391 kinases (Homo sapiens, UniProt Q9NYY3); settings: PLK2, MK-28 1 µM, ATP 1 µM
panel of 391 kinases [25] = molecular target: panel of 391 kinases (Homo sapiens, UniProt Q9Y2H1); settings: STK38L/NDR2, MK-28 1 µM, ATP 1 µM
[26] = read-out: % Enzyme Activity (relative to DMSO controls)

CN(/N=C\c1ccc(O)c(O)c1)c1nc(-c2ccccc2)cc(-c2ccccc2)n1 [MK-28] was tested, and the “% Enzyme Activity (relative to DMSO controls)” value (panel of 391 kinases [1]) was 108.93%, the remaining activity at 1 µM (panel of 391 kinases [1]; [26]) was 109% and the “% Enzyme Activity (relative to DMSO controls)” value (panel of 391 kinases [2]) was 101.22%. The remaining activity at 1 µM (panel of 391 kinases [2]; [26]) was 108%, the “% Enzyme Activity (relative to DMSO controls)” value (panel of 391 kinases [3]) was 101.26% and the remaining activity at 1 µM (panel of 391 kinases [3]; [26]) was 102%. For the same compound, the “% Enzyme Activity (relative to DMSO controls)” value (panel of 391 kinases [4]) was 99.87%, the remaining activity at 1 µM (panel of 391 kinases [4]; [26]) was 102% and the “% Enzyme Activity (relative to DMSO controls)” value (panel of 391 kinases [5]) was 95.23%. The remaining activity at 1 µM (panel of 391 kinases [5]; [26]) was 99.2%, the “% Enzyme Activity (relative to DMSO controls)” value (panel of 391 kinases [6]; CDK2/Cyclin A1) was 112.90% and the remaining activity at 1 µM (panel of 391 kinases [6]; CDK2/Cyclin A1) was 118%. The “% Enzyme Activity (relative to DMSO controls)” value (panel of 391 kinases [6]; CDK2/cyclin A) was 102.50%, the remaining activity at 1 µM (panel of 391 kinases [6]; CDK2/cyclin A) was 104% and the “% Enzyme Activity (relative to DMSO controls)” value (panel of 391 kinases [6]; CDK2/cyclin E2) was 99.65%. The remaining activity at 1 µM (panel of 391 kinases [6]; CDK2/cyclin E2) was 100%, the “% Enzyme Activity (relative to DMSO controls)” value (panel of 391 kinases [6]; CDK2/cyclin E) was 95.41% and the remaining activity at 1 µM (panel of 391 kinases [6]; CDK2/cyclin E) was 97%. The “% Enzyme Activity (relative to DMSO controls)” value (panel of 391 kinases [6]; CDK2/cyclin O) was 124.92%, the remaining activity at 1 µM (panel of 391 kinases [6]; CDK2/cyclin O) was 126% and the “% Enzyme Activity (relative to DMSO controls)” value (panel of 391 kinases [7]) was 94.59%. The remaining activity at 1 µM (panel of 391 kinases [7]; [26]) was 95.4%, the “% Enzyme Activity (relative to DMSO controls)” value (panel of 391 kinases [8]) was 108.65% and the remaining activity at 1 µM (panel of 391 kinases [8]; [26]) was 109%. For the same compound, the “% Enzyme Activity (relative to DMSO controls)” value (panel of 391 kinases [9]) was 105.09%, the remaining activity at 1 µM (panel of 391 kinases [9]; [26]) was 110% and the “% Enzyme Activity (relative to DMSO controls)” value (panel of 391 kinases [10]) was 63.98%. For the same compound, the remaining activity at 1 µM (panel of 391 kinases [10]; [26]) was 70.3%, the “% Enzyme Activity (relative to DMSO controls)” value (panel of 391 kinases [11]) was 82.35% and the remaining activity at 1 µM (panel of 391 kinases [11]; [26]) was 85.3%. For the same compound, the “% Enzyme Activity (relative to DMSO controls)” value (panel of 391 kinases [12]) was 89.94%, the remaining activity at 1 µM (panel of 391 kinases [12]; [26]) was 95.1% and the “% Enzyme Activity (relative to DMSO controls)” value (panel of 391 kinases [13]) was 104.03%. The remaining activity at 1 µM (panel of 391 kinases [13]; [26]) was 109%, the “% Enzyme Activity (relative to DMSO controls)” value (panel of 391 kinases [14]) was 101.00% and the remaining activity at 1 µM (panel of 391 kinases [14]; [26]) was 105%. For the same compound, the “% Enzyme Activity (relative to DMSO controls)” value (panel of 391 kinases [15]) was 102.30%, the remaining activity at 1 µM (panel of 391 kinases [15]; [26]) was 104% and the “% Enzyme Activity (relative to DMSO controls)” value (panel of 391 kinases [16]) was 100.80%. The remaining activity at 1 µM (panel of 391 kinases [16]; [26]) was 101%, the “% Enzyme Activity (relative to DMSO controls)” value (panel of 391 kinases [17]) was 100.80% and the remaining activity at 1 µM (panel of 391 kinases [17]; [26]) was 103%. For the same compound, the “% Enzyme Activity (relative to DMSO controls)” value (panel of 391 kinases [18]) was 101.04%, the remaining activity at 1 µM (panel of 391 kinases [18]; [26]) was 102% and the “% Enzyme Activity (relative to DMSO controls)” value (panel of 391 kinases [19]) was 100.46%. For the same compound, the remaining activity at 1 µM (panel of 391 kinases [19]; [26]) was 101%, the “% Enzyme Activity (relative to DMSO controls)” value (panel of 391 kinases [20]) was 103.83% and the remaining activity at 1 µM (panel of 391 kinases [20]; [26]) was 105%. The “% Enzyme Activity (relative to DMSO controls)” value (panel of 391 kinases [21]) was 91.99%, the remaining activity at 1 µM (panel of 391 kinases [21]; [26]) was 93.3% and the “% Enzyme Activity (relative to DMSO controls)” value (panel of 391 kinases [22]) was 102.96%. The remaining activity at 1 µM (panel of 391 kinases [22]; [26]) was 104%, the “% Enzyme Activity (relative to DMSO controls)” value (panel of 391 kinases [23]) was 78.20% and the remaining activity at 1 µM (panel of 391 kinases [23]; [26]) was 80%. For the same compound, the “% Enzyme Activity (relative to DMSO controls)” value (panel of 391 kinases [24]) was 97.72%, the remaining activity at 1 µM (panel of 391 kinases [24]; [26]) was 98.5% and the “% Enzyme Activity (relative to DMSO controls)” value (panel of 391 kinases [25]) was 94.10%. For the same compound, the remaining activity at 1 µM (panel of 391 kinases [25]; [26]) was 96%.
